Where two headings read alike, the source gives them in different places.
Legend:
[1] = Caco-2 cell monolayer permeability assay; details: human, Caco-2
[2] = biological target: CYP2C19 (Homo sapiens, UniProt P33261); test: biochemical
[3] = system: Mtb H37Rv; test: Minimal bactericidal concentration; type: cell-based, Mycobacterium tuberculosis; details: Mtb H37Rv aerobic
[4] = system: NRP Mtb H37Rv; test: microbe, parasite or virus in culture; type: cell-based; details: Mycobacterium tuberculosis
[5] = Human plasma, equilibrium dialysis
[6] = biological target: CYP2D6 (Homo sapiens, UniProt P10635); test: biochemical
[7] = in vitro; details: human
[8] = system: Mycobacterium avium; test: MIC against nontuberculous mycobacteria, Alamar blue; type: cell-based
[9] = system: intracellular Mtb H37Rv; test: microbe, parasite or virus in culture; type: cell-based; details: Mycobacterium tuberculosis
[10] = biological target: CYP3A4 (Homo sapiens, UniProt P08684); test: Cytochrome P450 inhibition; type: in vitro ADME
[11] = In vitro microsomal stability assay; details: human, microsomes
[12] = biological target: T1, CYP2B6 (Homo sapiens, UniProt P20813); test: biochemical
T1 sequence (P20813 1-491): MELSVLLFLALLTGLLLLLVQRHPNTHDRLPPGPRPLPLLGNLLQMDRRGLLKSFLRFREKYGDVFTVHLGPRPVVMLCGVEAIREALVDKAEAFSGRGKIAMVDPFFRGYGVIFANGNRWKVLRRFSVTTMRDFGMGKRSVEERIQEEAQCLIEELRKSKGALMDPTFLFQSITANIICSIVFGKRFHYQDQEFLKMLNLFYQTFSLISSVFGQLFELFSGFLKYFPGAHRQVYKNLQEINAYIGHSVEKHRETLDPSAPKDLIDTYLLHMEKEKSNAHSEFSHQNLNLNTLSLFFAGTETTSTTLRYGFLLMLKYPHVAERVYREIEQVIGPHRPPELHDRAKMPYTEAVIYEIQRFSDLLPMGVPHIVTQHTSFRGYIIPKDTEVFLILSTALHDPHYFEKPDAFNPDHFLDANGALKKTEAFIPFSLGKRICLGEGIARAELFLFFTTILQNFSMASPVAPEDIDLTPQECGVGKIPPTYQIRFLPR

[13] = system: Mtb H37Rv; test: Primary screen: MIC, IC50 and IC90 under aerobic conditions; type: cell-based; details: Mycobacterium tuberculosis
[14] = system: Mtb H37Rv; test: Secondary assay: MIC, IC50 and IC90 repeated at lower starting concentrations; type: cell-based; details: Mycobacterium tuberculosis
[15] = system: Mycobacterium abscessus; test: MIC, IC50, IC90 against nontuberculous mycobacteria; type: cell-based
[16] = in vitro; details: human; remark: listed apart in the source
[17] = HepG2 cytotoxicity; type: cell-based; details: human, HepG2 cells
[18] = biological target: CYP2C9 (Homo sapiens, UniProt P11712); test: Cytochrome P450 inhibition; type: in vitro ADME
[19] = biological target: T2, CYP2C8 (Homo sapiens, UniProt P10632); test: biochemical
T2 sequence (P10632 1-490): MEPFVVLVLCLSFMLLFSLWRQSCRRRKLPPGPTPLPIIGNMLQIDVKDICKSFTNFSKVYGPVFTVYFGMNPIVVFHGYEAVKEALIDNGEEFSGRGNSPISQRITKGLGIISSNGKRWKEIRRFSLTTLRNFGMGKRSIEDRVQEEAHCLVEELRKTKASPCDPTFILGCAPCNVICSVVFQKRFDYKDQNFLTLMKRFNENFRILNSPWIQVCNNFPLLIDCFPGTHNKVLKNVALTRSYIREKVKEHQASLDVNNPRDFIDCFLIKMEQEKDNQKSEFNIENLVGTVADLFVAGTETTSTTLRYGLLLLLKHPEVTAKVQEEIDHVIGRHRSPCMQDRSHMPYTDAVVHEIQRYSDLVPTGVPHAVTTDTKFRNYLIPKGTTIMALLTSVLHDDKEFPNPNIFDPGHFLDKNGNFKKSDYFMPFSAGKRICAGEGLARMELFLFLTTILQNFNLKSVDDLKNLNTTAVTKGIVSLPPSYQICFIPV

Sequence of CYP3A4 (P08684 whole entry): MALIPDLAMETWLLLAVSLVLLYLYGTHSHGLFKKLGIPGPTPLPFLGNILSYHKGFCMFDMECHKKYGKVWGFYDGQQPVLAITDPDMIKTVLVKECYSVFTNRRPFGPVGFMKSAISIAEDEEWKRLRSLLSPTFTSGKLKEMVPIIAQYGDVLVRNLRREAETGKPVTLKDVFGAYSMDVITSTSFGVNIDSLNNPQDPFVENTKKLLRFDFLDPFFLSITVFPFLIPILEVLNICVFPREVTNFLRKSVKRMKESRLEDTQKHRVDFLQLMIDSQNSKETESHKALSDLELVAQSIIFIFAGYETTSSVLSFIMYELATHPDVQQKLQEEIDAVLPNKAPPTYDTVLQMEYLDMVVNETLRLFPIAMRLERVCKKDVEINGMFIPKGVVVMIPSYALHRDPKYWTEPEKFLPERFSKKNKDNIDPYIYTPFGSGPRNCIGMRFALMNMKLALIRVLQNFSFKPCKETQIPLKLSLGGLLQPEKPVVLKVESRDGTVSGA
Sequence of CYP2C9 (P11712 whole entry): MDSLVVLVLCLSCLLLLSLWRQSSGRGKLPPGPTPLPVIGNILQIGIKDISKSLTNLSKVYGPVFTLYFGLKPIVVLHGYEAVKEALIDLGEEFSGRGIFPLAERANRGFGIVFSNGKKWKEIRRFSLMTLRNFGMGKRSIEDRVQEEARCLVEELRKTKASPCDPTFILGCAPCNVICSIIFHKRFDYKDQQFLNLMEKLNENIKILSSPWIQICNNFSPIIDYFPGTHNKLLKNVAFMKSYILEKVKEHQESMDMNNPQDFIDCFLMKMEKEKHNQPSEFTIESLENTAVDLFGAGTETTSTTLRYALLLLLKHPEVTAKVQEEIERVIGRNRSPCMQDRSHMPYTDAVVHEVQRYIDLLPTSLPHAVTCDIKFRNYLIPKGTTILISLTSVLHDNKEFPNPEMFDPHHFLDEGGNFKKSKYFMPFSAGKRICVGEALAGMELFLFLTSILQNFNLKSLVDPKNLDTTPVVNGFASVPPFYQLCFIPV
Sequence of CYP2D6 (P10635 whole entry): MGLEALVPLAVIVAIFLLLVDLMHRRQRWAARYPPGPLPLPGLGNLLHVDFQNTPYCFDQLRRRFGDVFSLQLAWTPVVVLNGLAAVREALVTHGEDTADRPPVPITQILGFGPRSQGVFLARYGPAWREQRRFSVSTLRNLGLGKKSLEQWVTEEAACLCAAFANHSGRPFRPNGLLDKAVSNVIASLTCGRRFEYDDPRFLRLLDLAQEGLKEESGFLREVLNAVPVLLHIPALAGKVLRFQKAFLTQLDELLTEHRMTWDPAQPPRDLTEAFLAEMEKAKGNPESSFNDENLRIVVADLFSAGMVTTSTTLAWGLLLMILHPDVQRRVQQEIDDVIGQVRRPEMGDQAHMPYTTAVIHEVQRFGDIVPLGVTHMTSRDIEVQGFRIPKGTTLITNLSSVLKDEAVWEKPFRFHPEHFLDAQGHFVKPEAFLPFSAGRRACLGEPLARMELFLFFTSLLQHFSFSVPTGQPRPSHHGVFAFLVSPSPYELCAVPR
Sequence of CYP2C19 (P33261 whole entry): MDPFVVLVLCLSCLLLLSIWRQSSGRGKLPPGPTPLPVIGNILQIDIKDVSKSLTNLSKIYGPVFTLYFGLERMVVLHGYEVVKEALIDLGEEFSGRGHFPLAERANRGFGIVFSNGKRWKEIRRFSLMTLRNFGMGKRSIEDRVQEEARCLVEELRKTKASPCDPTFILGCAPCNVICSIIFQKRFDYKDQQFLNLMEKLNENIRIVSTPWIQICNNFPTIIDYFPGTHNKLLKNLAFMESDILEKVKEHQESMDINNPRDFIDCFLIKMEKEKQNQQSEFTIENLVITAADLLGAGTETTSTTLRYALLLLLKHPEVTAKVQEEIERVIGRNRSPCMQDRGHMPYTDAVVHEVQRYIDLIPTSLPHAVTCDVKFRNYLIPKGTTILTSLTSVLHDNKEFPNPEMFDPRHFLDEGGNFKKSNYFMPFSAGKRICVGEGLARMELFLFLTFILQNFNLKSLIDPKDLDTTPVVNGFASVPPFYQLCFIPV

## O=C(C[n+]1cn(Cc2cccc(Cn3c[n+](CC(=O)c4ccc([N+](=O)[O-])cc4)c4ccccc43)n2)c2ccccc21)c1ccc([N+](=O)[O-])cc1.[Br-].[Br-] [Compound 6f, 1,1′-(pyridine-2,6-diylbis(methylene))bis(3-(2-(4-nitrophenyl)-2-oxoethyl)-1H-benzo[d]imidazol-3-ium) bromide]
[1]
  Papp B→A: 0.095 ×10⁻⁶ cm/s
  efflux ratio: 0.2
[2]
  IC50: 8.8 µM
[3]
  mechanism of action (bacteriostatic or bactericidal): bactericidal
[4]; Low oxygen
  IC50: 9.7 µM
  IC90: 33 µM
  MIC: 120 µM
[4]; Normal oxygen
  IC50: 9.9 µM
  IC90: 25 µM
  MIC: 71 µM
[5]
  Mean plasma fraction unbound: 7.8%
[6]
  IC50: 0.92 µM
[7]
  IC50: > 50 µM
[8]
  activity against M. avium (in words): moderate activity
[8]; Mycobacterium avium
  MIC: 200 µM
[9]; THP-1, read-out: IC50 intracell
  IC50: 14 µM
[9]; THP-1, read-out: IC90 intracell
  IC90: 26 µM
[10]
  IC50: 6.6 µM
[10]; IC50 CYP3A4 – midazolam, probe substrate midazolam, human liver microsomes
  IC50: > 20 µM
[11]; NADPH-dependent T1/2, Human
  half-life at 1 μM: 1.77 h
[11]; NADPH-free CLint
  microsomal CLint at 1 μM: < 12.8 µL/min/mg
[11]; NADPH-free T1/2, Human
  half-life at 1 μM: > 3 h
[12]
  IC50: > 20 µM
[13]
  IC50: 14 µM
  IC90: 21 µM
  MIC: 24 µM
[14]
  IC50: 11 µM
  IC90: 20 µM
[14]; read-out: MIC aerobic condition
  MIC: 16 µM
[15]
  activity against M. abscessus (in words): showed activity
[15]; Mycobacteroides abscessus
  IC50: 56 µM
  IC90: 68 µM
  MIC: 88 µM
[16]
  recovery: 24.5%
[16]; plasma
  fraction unbound: 0.078
[17]
  IC50 at 72 h: > 100 µM
[18]
  IC50: > 20 µM
[19]
  IC50: > 20 µM

Reference: PMC7421780 (Future Medicinal Chemistry, 2020)
